Test results published in patent US20050112573A1, “Method of detecting toxic substance” (priority 2001, published 2005).

Test system: yeast genes (level of expressed mRNA)
Experiment: DNA chip analysis of expressed mRNA of yeast genes after 2 h culture with a toxic chemical substance
Format: cell-based, Saccharomyces cerevisiae S288C
Conditions: for The level of expressed mRNA in the presence of chemical substance/ (ratio to absence of chemical substance): stress protein genes, DNA chip
Method: Yeast (Saccharomyces cerevtisiae S288C (α SUC2mal mel gap2 CUP1)) were cultured at 25° C. on YPD medium (yeast extract 1%, polypepton 2%, glucose 2%). One of toxic chemical substances was added to the cell at logarithmic growth phase, and the cell was further cultured for two hours. Cell was cultured without any chemical substance in the same condition, and was used as control. Concentrations of the chemical substances were defined to inhibit the growth of the yeast but not lead to death.
After the completion of cultivation, the culture was centrifuged to collect the cells. To the cells, sodium acetate buffer (50 mM sodium acetate, 10 mM EDTA, 1% SDS) was added, and the mixture was shaken at 65° C. for five minutes, followed by returning to room temperature, and obtaining the supernatant, which procedure was repeated two times. To the supernatant, ½ amount of a solution of phenol/chloroform was added, and the mixture was centrifuged to give a supernatant, which was added with an equal amount of chloroform, and the mixture was centrifuged to give a supernatant. To the supernatant, an equal amount of isopropanol containing 0.3 M sodium acetate was added, and the mixture was allowed to stand at room temperature for 30 minutes, after which the mixture was centrifuged to give a sediment of the whole RNAs. Seventy % ethanol was added to the sediment, and the mixture was again centrifuged to give a sediment, which was then dried and dissolved in water. mRNA was isolated from the whole RNAs as followings. In view of the fact that a poly A chain is attached to the 3′ terminus of mRNA, a polynucleotide having a poly T structure which was immobilized on the surface of latex beads was used to trap the mRNA, and then the mRNA was washed and eluted with spine column (Oligotex-dT30<Super>mRNA Purification Kit, Takara). Reverse transcription of the mRNA was conducted with a reverse transcriptase (Super Script II Reverse Transcriptase; catalogue No. 18064-014, GibcoBRL) using fluorescence-labeled nucleotides to give cDNAs that were introduced with Cy3-dUTP or Cy5-dUTP during the reverse transcription.
The labeled cDNAs were dissolved in TE buffer (10 mM Tris-HCl/1 mM EDTA, pH8.0), and the solution was dropped on the DNA chip containing the whole genes of yeast (DNA Chip Research Inc. Japan) so that the cDNAs were hybridized on the DNA chip at 65° C. for over 12 hours. The fluoresces intensity of the DNA chip was read with a scanner, and the ratio relative to the fluorescence intensity resulting from the absence of chemical substance was estimated as the following, which is shown in Tables 1 to 9: [formula]
In the Tables, “Intensity” indicated in the rightmost column is a value of the level of expressed mRNA of each gene in control cells as divided by the average level of the expressions of the whole genes.

## COc1cc(CNC(=O)CCCCC=CC(C)C)ccc1O [(12), 8-methyl-N-vanillyl-6-nonenamide]
Yeast gene YIL123W
  The level of expressed mRNA in the presence of chemical substance/The level of expressed mRNA in the absence of chemical substance: 0.8
Yeast gene YIL140W
  The level of expressed mRNA in the presence of chemical substance/The level of expressed mRNA in the absence of chemical substance: 1.0
Yeast gene YJL052W, two hours culture
  The level of expressed mRNA in the presence of chemical substance/The level of expressed mRNA in the absence of chemical substance: 2.4
Yeast gene YJL070C, ratio of DNA chip fluorescence intensity to that without chemical substance
  The level of expressed mRNA in the presence of chemical substance/ (in its absence), gene YJL070C: 1.0
Yeast gene YJL073W
  The level of expressed mRNA in the presence of chemical substance/The level of expressed mRNA in the absence of chemical substance: 1.0
Yeast gene YJL089W
  The level of expressed mRNA in the presence of chemical substance/The level of expressed mRNA in the absence of chemical substance: 1.2
Yeast gene YJL096W, mitochondria-located protein genes, 2 h culture with chemical
  The level of expressed mRNA in the presence of chemical substance/ (ratio to absence), gene YJL096W: 1.0
Yeast gene YJL116C
  The level of expressed mRNA in the presence of chemical substance/The level of expressed mRNA in the absence of chemical substance: 1.1
Yeast gene YJL158C
  The level of expressed mRNA in the presence of chemical substance/ (ratio to absence of chemical substance): 1.1
Yeast gene YJL167W, ratio of DNA chip fluorescence intensity to that without chemical substance
  The level of expressed mRNA in the presence of chemical substance/ (in its absence), gene YJL167W: 1.3
Yeast gene YJL180C, mitochondria-located protein genes, 2 h culture with chemical
  The level of expressed mRNA in the presence of chemical substance/ (ratio to absence), gene YJL180C: 0.8
Yeast gene YJL216C, ratio of DNA chip fluorescence intensity to that without chemical substance
  The level of expressed mRNA in the presence of chemical substance/ (in its absence), gene YJL216C: 1.0
Yeast gene YJR004C
  The level of expressed mRNA in the presence of chemical substance/The level of expressed mRNA in the absence of chemical substance: 0.8
Yeast gene YJR086W
  The level of expressed mRNA in the presence of chemical substance/The level of expressed mRNA in the absence of chemical substance: 0.8
Yeast gene YJR090C
  The level of expressed mRNA in the presence of chemical substance/ (ratio to absence of chemical substance): 0.8
Yeast gene YKL008C
  The level of expressed mRNA in the presence of chemical substance/The level of expressed mRNA in the absence of chemical substance: 1.5
Yeast gene YKL013C
  The level of expressed mRNA in the presence of chemical substance/The level of expressed mRNA in the absence of chemical substance: 0.7
Yeast gene YKL039W
  The level of expressed mRNA in the presence of chemical substance/The level of expressed mRNA in the absence of chemical substance: 0.9
Yeast gene YKL041W
  The level of expressed mRNA in the presence of chemical substance/The level of expressed mRNA in the absence of chemical substance: 0.8
Yeast gene YKL096W
  The level of expressed mRNA in the presence of chemical substance/The level of expressed mRNA in the absence of chemical substance: 0.3
Yeast gene YKL164C
  The level of expressed mRNA in the presence of chemical substance/ (ratio to absence of chemical substance): 0.8
Yeast gene YKL165C
  The level of expressed mRNA in the presence of chemical substance/The level of expressed mRNA in the absence of chemical substance: 2.4
Yeast gene YKL193C
  The level of expressed mRNA in the presence of chemical substance/The level of expressed mRNA in the absence of chemical substance: 0.9
Yeast gene YKR009C, ratio of DNA chip fluorescence intensity to that without chemical substance
  The level of expressed mRNA in the presence of chemical substance/ (in its absence), gene YKR009C: 1.0
Yeast gene YKR034W, ratio of DNA chip fluorescence intensity to that without chemical substance
  The level of expressed mRNA in the presence of chemical substance/ (in its absence), gene YKR034W: 0.7
Yeast gene YKR053C
  The level of expressed mRNA in the presence of chemical substance/ (ratio to absence of chemical substance): 0.7
Yeast gene YKR058W, energy system protein genes, 2 h culture with the chemical, ratio to control without chemical
  The level of expressed mRNA in the presence of chemical substance/ in its absence, gene YKR058W: 0.9
Yeast gene YLR006C, ratio of DNA chip fluorescence intensity to that without chemical substance
  The level of expressed mRNA in the presence of chemical substance/ (in its absence), gene YLR006C: 0.7
Yeast gene YLR006C
  The level of expressed mRNA in the presence of chemical substance/ (ratio to absence of chemical substance): 0.7
Yeast gene YLR120C
  The level of expressed mRNA in the presence of chemical substance/The level of expressed mRNA in the absence of chemical substance: 1.6
Yeast gene YLR136C
  The level of expressed mRNA in the presence of chemical substance/The level of expressed mRNA in the absence of chemical substance: 1.3
Yeast gene YLR178C
  The level of expressed mRNA in the presence of chemical substance/The level of expressed mRNA in the absence of chemical substance: 2.2
Yeast gene YLR250W
  The level of expressed mRNA in the presence of chemical substance/The level of expressed mRNA in the absence of chemical substance: 1.0
Yeast gene YLR295C, energy system protein genes, 2 h culture with the chemical, ratio to control without chemical
  The level of expressed mRNA in the presence of chemical substance/ in its absence, gene YLR295C: 0.5
Yeast gene YLR295C, mitochondria-located protein genes, 2 h culture with chemical
  The level of expressed mRNA in the presence of chemical substance/ (ratio to absence), gene YLR295C: 0.5
Yeast gene YLR327C
  The level of expressed mRNA in the presence of chemical substance/The level of expressed mRNA in the absence of chemical substance: 1.4
Yeast gene YLR351C, ratio of DNA chip fluorescence intensity to that without chemical substance
  The level of expressed mRNA in the presence of chemical substance/ (in its absence), gene YLR351C: 0.9
Yeast gene YLR356W
  The level of expressed mRNA in the presence of chemical substance/The level of expressed mRNA in the absence of chemical substance: 1.5
Yeast gene YLR362W
  The level of expressed mRNA in the presence of chemical substance/The level of expressed mRNA in the absence of chemical substance: 0.8
Yeast gene YLR375W, ratio of DNA chip fluorescence intensity to that without chemical substance
  The level of expressed mRNA in the presence of chemical substance/ (in its absence), gene YLR375W: 0.9
Yeast gene YLR391W
  The level of expressed mRNA in the presence of chemical substance/The level of expressed mRNA in the absence of chemical substance: 1.0
Yeast gene YLR429W
  The level of expressed mRNA in the presence of chemical substance/The level of expressed mRNA in the absence of chemical substance: 1.1
Yeast gene YML129C, energy system protein genes, 2 h culture with the chemical, ratio to control without chemical
  The level of expressed mRNA in the presence of chemical substance/ in its absence, gene YML129C: 0.8
Yeast gene YML129C, mitochondria-located protein genes, 2 h culture with chemical
  The level of expressed mRNA in the presence of chemical substance/ (ratio to absence), gene YML129C: 0.8
Yeast gene YMR004W
  The level of expressed mRNA in the presence of chemical substance/The level of expressed mRNA in the absence of chemical substance: 1.0
Yeast gene YMR023C, mitochondria-located protein genes, 2 h culture with chemical
  The level of expressed mRNA in the presence of chemical substance/ (ratio to absence), gene YMR023C: 0.7
Yeast gene YMR094W
  The level of expressed mRNA in the presence of chemical substance/The level of expressed mRNA in the absence of chemical substance: 0.9
Yeast gene YMR104C
  The level of expressed mRNA in the presence of chemical substance/The level of expressed mRNA in the absence of chemical substance: 1.0
Yeast gene YMR186W
  The level of expressed mRNA in the presence of chemical substance/ (ratio to absence of chemical substance): 1.0
Yeast gene YMR219W
  The level of expressed mRNA in the presence of chemical substance/The level of expressed mRNA in the absence of chemical substance: 1.5
Yeast gene YMR226C
  The level of expressed mRNA in the presence of chemical substance/The level of expressed mRNA in the absence of chemical substance: 1.1
Yeast gene YMR267W, energy system protein genes, 2 h culture with the chemical, ratio to control without chemical
  The level of expressed mRNA in the presence of chemical substance/ in its absence, gene YMR267W: 0.8
Yeast gene YMR267W, mitochondria-located protein genes, 2 h culture with chemical
  The level of expressed mRNA in the presence of chemical substance/ (ratio to absence), gene YMR267W: 0.8
Yeast gene YMR267W, ratio of DNA chip fluorescence intensity to that without chemical substance
  The level of expressed mRNA in the presence of chemical substance/ in its absence, gene YMR267W: 0.8
Yeast gene YMR275C
  The level of expressed mRNA in the presence of chemical substance/The level of expressed mRNA in the absence of chemical substance: 0.7
Yeast gene YMR276W
  The level of expressed mRNA in the presence of chemical substance/The level of expressed mRNA in the absence of chemical substance: 1.2
Yeast gene YMR278W, ratio of DNA chip fluorescence intensity to that without chemical substance
  The level of expressed mRNA in the presence of chemical substance/ (in its absence), gene YMR278W: 1.0
Yeast gene YMR293C, ratio of DNA chip fluorescence intensity to that without chemical substance
  The level of expressed mRNA in the presence of chemical substance/ (in its absence), gene YMR293C: 0.9
